Settings: pH 8
Source text: Note that in the present invention, as an index of the “water solubility” in a “water-soluble drug” or a “water-soluble steroid”, a distribution coefficient (octanol/water distribution coefficient) can be employed. The distribution coefficient can be expressed by log D by taking into consideration of the influence of pH, and the water solubility is indicated by a minus value, while the liposolubility lipophilicity is indicated by a plus value.
The distribution coefficient can be obtained in accordance with the method described in JIS Z7260-107 or […].

Row | Substance | distribution coefficient (log D)
1 | dexamethasone metasulfobenzoate sodium | −2
2 | prednisolone sodium phosphate | 0
